# Experimental data from patent US20170007605A1, “Method of Optimizing the Treatment of Philadelphia-positive Leukemia with Abl Tyrosine Kinase Inhibitors” (Novartis AG, priority 2006, published 2017).
# Several values for one entry are separate records, joined by “and”; a condition that tells them apart may be missing. Equal entries are not always repeated.
# What was measured:
# [1] = Plasma trough levels (Cmin) of Imatinib and CGP74588, IRIS study (LC/MS/MS); format: in vivo
# [2] = in patients; cited from earlier work
# CML patients = experiment: Cytogenetic (CCR) and molecular (MMR) response to Imatinib mesylate therapy and ROC curve analysis, Bordeaux study; format: in vivo, human; conditions: of 68 CML patients, after at least one year's treatment, 400 or 600 mg once daily
# Procedure: The cytogenetic response to Imatinib mesylate therapy was assessed using a conventional cytogenetic analysis of bone marrow metaphases. Cytogenetic responders were defined as having CCR, i.e. 0 percent of Philadelphia-chromosome-positive metaphases among at least 25 cells in metaphase in the bone marrow aspirate (Colombat M, Fort M P, Chollet C, et al. Haematologica 2006; 91:162-8.). Real-time quantitative reverse-transcriptase polymerase chain reaction assay was used to assess BCR-ABL transcript levels and quantify the molecular response (Colombat M, Fort M P, Chollet C, et al. see above). Briefly, EDTA-anticoagulated peripheral blood was collected to perform RNA extraction followed by real-time quantitative reverse-transcriptase polymerase chain reaction. […] Quantification of BCR-ABL transcripts was performed according to recommendations recently proposed for harmoniza-tion of results (Hughes T P, Deininger M, Hochhaus A, et al. Blood 2006; 108:28-37.). […] A standardized baseline was calculated by measuring the ratio of BCR-ABL/ABL in 40 chronic-phase CML patients from blood collected before any treatment. […]
# Any relationship between BCR-ABL transcript levels and the range time from date of Imatinib mesylate treatment initiation to date of molecular analysis was evaluated.
# Results were expressed as adjusted odds ratio; 95 percent confidence interval; P value of Wald test.
# CML-CP patients = experiment: CCR and MMR rates by steady-state Imatinib trough level quartile, IRIS study; format: in vivo, human
# Procedure: Rates of CCR (defined as 0% Ph+ metaphase cells out of at least 20 examined) in the study population and major molecular response (MMR, defined as ≧3 log reduction in BCR-ABL/BCR ratio from a standardized baseline) in subjects who achieved CCR before were reported previously (O'Brien S G, Guilhot F, Larson R A, et al., see above).
# CCR were evaluated up to 5 years.
# [3] = tested on: newly diagnosed patients with CML in chronic phase (CML-CP); conditions: cited from earlier work
# [4] = Trough plasma Imatinib concentrations at steady-state, Bordeaux study (HPLC-ESI-MS/MS)
# [5] = Day 29, Quartiles 2 and 3, N = 178
# [6] = five year follow-up, first-line imatinib
# [7] = 400 mg daily, 50 patients, steady-state
# [8] = 600 mg daily, 18 patients, steady-state
# [9] = patients without MMR (34 patients)
smiles,measurement,setting,value
"Cc1ccc(NC(=O)c2ccc(CN3CCNCC3)cc2)cc1Nc1nccc(-c2cccnc2)n1 [CGP74588, N-{5-[4-(piperazino-methyl)-benzoylamido]-2-methylphenyl}-4-(3-pyridyl)-2-pyrimidine-amine]","Steady-state trough level, mean (±SD)","[1]; Day 29, 400 mg daily, overall N = 351",241.9±105.5 ng/mL and 242 (±105.5) ng/mL
same,"CGP74588/Imatinib trough concentration ratio, mean (±SD)","[1]; Day 29, Quartile 1, N = 87",0.32 (±0.106)
same,"Steady-state trough level, mean (±SD)","[1]; Day 29, Quartile 1, N = 87",153 (±48.5) ng/mL
same,"CGP74588/Imatinib trough concentration ratio, mean (±SD)","[1]; Day 29, Quartile 4, N = 86",0.21 (±0.052)
same,"Steady-state trough level, mean (±SD)","[1]; Day 29, Quartile 4, N = 86",343 (±126.1) ng/mL
same,"CGP74588/Imatinib trough concentration ratio, mean (±SD)",[1]; [5],0.27 (±0.068)
same,"Steady-state trough level, mean (±SD)",[1]; [5],236 (±65.8) ng/mL
same,24-hour trough concentration after the first dose,"[1]; first 400 mg dose, Day 2, mean±SD",82.7 ± 47.4 ng/mL
same,Contribution of the metabolite to Imatinib exposure,[1]; in vivo,< 20%
same,Spearman correlation coefficient between parent drug and metabolite levels,[1]; in vivo,0.76
same,Accumulation ratio to steady state,[1]; trough levels on days 2 and 29 in the same subject,3.38±1.54
same,Metabolite level as share of the parent drug plasma level,[2],~20%
"Cc1ccc(NC(=O)c2ccc(CN3CCN(C)CC3)cc2)cc1Nc1nccc(-c2cccnc2)n1 [Imatinib, 4-(4-methylpiperazin-1-ylmethyl)-N-[4-methyl-3-(4-(pyridin-3-yl)pyrimidin-2-ylamino)phenyl]-benzamide]",Number of patients who achieved a CCR,CML patients,56
same,"Steady-state trough level, mean (±SD)","[1]; Day 29, Quartile 1, N = 87",490 (±119.7) ng/mL
same,"Steady-state trough level, mean (±SD)","[1]; Day 29, Quartile 4, N = 86",1661 (±602.0) ng/mL
same,"Steady-state trough level, mean (±SD)",[1]; [5],889 (±148.2) ng/mL
same,"Imatinib trough exposure (Cmin), mean","[1]; Day 29, patients who achieved CCR",1009 ± 544 ng/mL and 1009 ng/mL
same,"Imatinib trough exposure (Cmin), mean","[1]; Day 29, patients who did not achieve CCR",812 ± 409 ng/mL and 812 ng/mL
same,Increase in trough level,"[1]; age from 20 years to 70 years, linear relationship assumed",295 ng/mL
same,Plasma trough level,"[1]; females, steady state",1078 ± 514.5 ng/mL
same,concentration at 24 h,"[1]; human, plasma, first 400 mg dose, Day 2, mean±SD, read-out: 24-hour trough concentration after the first dose",518 ± 370 ng/mL
same,Plasma trough level,"[1]; males, steady state",921 ± 530.8 ng/mL
same,"Difference in plasma trough level, females vs males",[1]; steady state,17.2%
same,Estimated decrease in trough level,"[1]; weight increase from 40 kg to 120 kg, linear relationship assumed",approximately 280 ng/ml
same,MMR (%) in pts with CCR,"CML-CP patients; 1 year, Quartile 1",43%
same,CCR rate,"CML-CP patients; 1 year, Quartile 1 (n = 87)",59%
same,MMR (%) in pts with CCR,"CML-CP patients; 1 year, Quartile 4",55%
same,CCR rate,"CML-CP patients; 1 year, Quartile 4 (n = 86)",73%
same,MMR (%) in pts with CCR,"CML-CP patients; 1 year, Quartiles 2 and 3",56%
same,CCR rate,"CML-CP patients; 1 year, Quartiles 2 and 3 (n = 178)",71%
same,CCR rate,"CML-CP patients; 2 years, Quartile 1",73%
same,MMR (%) in pts with CCR,"CML-CP patients; 2 years, Quartile 1",63%
same,CCR rate,"CML-CP patients; 2 years, Quartile 4",84%
same,MMR (%) in pts with CCR,"CML-CP patients; 2 years, Quartile 4",86%
same,CCR rate,"CML-CP patients; 2 years, Quartiles 2 and 3",80%
same,MMR (%) in pts with CCR,"CML-CP patients; 2 years, Quartiles 2 and 3",78%
same,CCR rate,"CML-CP patients; 4 years, Quartile 1",81%
same,MMR (%) in pts with CCR,"CML-CP patients; 4 years, Quartile 1",65%
same,CCR rate,"CML-CP patients; 4 years, Quartile 4",89%
same,MMR (%) in pts with CCR,"CML-CP patients; 4 years, Quartile 4",90%
same,CCR rate,"CML-CP patients; 4 years, Quartiles 2 and 3",87%
same,MMR (%) in pts with CCR,"CML-CP patients; 4 years, Quartiles 2 and 3",83%
same,Time to CCR,CML-CP patients; Quartile 1,8.3 Month
same,Time to MMR in pts with CCR,CML-CP patients; Quartile 1,16.7 months
same,Time to CCR,CML-CP patients; Quartile 4,5.6 Month
same,Time to CCR,CML-CP patients; Quartiles 2 and 3,5.7 Month
same,"Estimated MMR rate, all patients","CML-CP patients; at 1 year, Imatinib levels <647 ng/mL",25%
same,"Estimated MMR rate, all patients","CML-CP patients; by 4 years, Q1",53%
same,"Estimated MMR rate, all patients","CML-CP patients; by 4 years, Q4",80%
same,"Estimated MMR rate, all patients","CML-CP patients; by 4 years, inter-quartile range (IQ)",72%
same,"Estimated MMR rate, all patients","CML-CP patients; within 1 year, patients with higher Imatinib levels",40%
same,Efficacy compared with IFN+Ara-C,"[3]; 400 mg daily, newly diagnosed CML-CP",superior efficacy to IFN+Ara-C
same,Estimated cumulative rate of complete cytogenetic response (CCR),[3]; [6],87%
same,Overall survival,[3]; [6],89%
same,"Trough plasma Imatinib concentration, mean value","[4]; 400 mg daily Imatinib mesylate, 50 patients, steady-state",1058 ng per millilitre
same,"Trough plasma Imatinib concentration, Q 25 (first quartile)",[4]; [7],722 ng per millilitre
same,"Trough plasma Imatinib concentration, Q 75 (third quartile)",[4]; [7],1285 ng per millilitre
same,"Trough plasma Imatinib concentration, maximum",[4]; [7],2947 ng per millilitre
same,"Trough plasma Imatinib concentration, median",[4]; [7],997 ng per millilitre
same,"Trough plasma Imatinib concentration, minimum",[4]; [7],181 ng per millilitre
same,"Trough plasma Imatinib concentration, Q 25 (first quartile)",[4]; [8],902 ng per millilitre
same,"Trough plasma Imatinib concentration, Q 75 (third quartile)",[4]; [8],1629 ng per millilitre
same,"Trough plasma Imatinib concentration, maximum",[4]; [8],2922 ng per millilitre
same,"Trough plasma Imatinib concentration, median",[4]; [8],1315 ng per millilitre
same,"Trough plasma Imatinib concentration, minimum",[4]; [8],603 ng per millilitre
same,Mean (±SD) trough plasma Imatinib concentration,[4]; patients with CCR (56 patients),1123.3±616.6 ng per millilitre
same,Median trough plasma Imatinib concentration,[4]; patients with MMR (34 patients),1350.2 ng per millilitre
same,Mean (±SD) trough plasma Imatinib concentration,[4]; patients without CCR (12 patients),694.2±556.0 ng per millilitre
same,Mean (±SD) trough plasma Imatinib concentration,[4]; [9],869.3±427.5 ng per millilitre
same,Median trough plasma Imatinib concentration,[4]; [9],885.5 ng per millilitre
